# US10537583B2, “Oral formulation of A-nor-5α androstane compound” (priority 2014, dated 2020)
# Read-outs that look alike come from different tables or passages of the source.
# Legend:
# [1] = for Ka (absorption rate constant) / P (cumulative absorption percentage) / Q (absorption dose in 2 hours): n = 3
# Procedure: A suitable concentration of intestinal circulating liquid comprising A-nor-5α-androstane compounds (Ia) was prepared by using PBS (pH 5.5 and pH 6.8) containing phenol red. Rats were fasting over 12 hours before the experiment and then subjected to intraperitoneal injection with urethane solution (dose 4 mL/kg) at a concentration of 0.3 g/ml for anesthesia. The rats were fixed and a 3 cm incision was made along the medioventral line. The duodenum (start from 1 cm below the pyloru, intestinal circulating fluid comprising A-nor-5α androstane compound, pH 5.5), the jejunum (start from […], intestinal circulating fluid comprising A-nor-5α androstane compound, pH 6.8), and the ileum (start from 30 cm below the pylorus, intestinal circulating fluid comprising A-nor-5α androstane compound, pH 6.8) were incubated and ligated. Preheated saline (37° C.) was used to clean the intestinal contents, and then the air (37° C.) was ventilated into the intestine to remove the saline. The wound was covered with dressing, and infrared lamp was used to keep warm (37° C.). The reflux device was connected and after 50 ml of drug-containing circulating fluid at a constant temperature of 37° C. was balanced at 3 mL/min for 5 min, timing was started when the flow rate was adjusted to 1 mL/ml. Samples (1 mL for each) were taken at 0, 15, 30, 45, 60, 90, and 120 min, while adding blank circulating fluid (1 mL). The sample was subjected to HPLC analysis after appropriate treatment. The volume of circulating fluid was corrected according to the concentration of phenol red. Then the remained amounts of drug X were calculated by the concentration of A-nor-5α androstane compounds and the volume of circulating fluid. Line slope is the absorption rate constant (Ka) of a drug. The cumulative absorption percentage (P) of the drug is obtained by comparing the absorption dose (Q) of a drug in 2 hours to the initial dose (X0) before absorption.
# [2] = tested on: Caco-2 cells
# Procedure: Caco-2 cells were spotted on a six-well plate. When the cells were grown to an inoculation density of 8×10^4 cells/mL, the cells were cultured with the drug-containing medium. The relationship between cells uptake and uptake time, the concentration of A-nor-5α-androstane compound (Ia) were examined. After the experiment was completed, the cells were scraped off and the cells were broken by multiple freezing-thawing. The samples of the cells were precipitated by acetonitrile and then subjected to HPLC analysis.
# [3] = tested on: Caco-2 cells; remark: listed apart in the source
# Procedure: The qualified Transwell plate was taken. The nutrient solution comprising drugs was prepared by using Hank's balanced salt solution (HBSS) to study the bidirectional transfer of A-nor-5α-androstane compounds (Ia) with different concentrations in Caco-2 cells.
# [4] = n-octanol, 37° C., n = 3
# Procedure: PBS with different pH was prepared, and oil-water partition coefficient of A-nor-5α androstane compound (Ia) in a buffer solution with different pH (e.g., 2.0, 4.5, 5.0, 6.0, 6.8, 7.4, respectively) was determined by shake-flask method. Water-saturated n-octanol was used to prepare a stock solution of A-nor-5α androstane compound, concentration of which was about 10 mg/mL. A variety of n-octanol-saturated PBS and aqueous solution (5 ml) was taken and added into glass tubes with plug. 0.5 mL of stock solution of A-nor-5α-androstane compound was added. The tubes were sealed completely and subjected to a 37° C. thermostatic oscillator, and sampled after shaking for 24 h. Samples from water phase and oil phase were taken for analysis by HPLC, respectively. The drug concentrations in water and oil phase were calculated. According to […], oil-water partition coefficient (Log P) was calculated and the results are shown in Table 2.
# [5] = 37° C., 72 hours, n = 3
# Procedure: Phosphate buffer solution (PBS) with different pH was prepared (pH is 1.0, 5.0, 5.5, 5.8, 6.0, 6.8 and 7.4). The equilibrium solubility of A-nor-5α androstane compounds (Ia) in PBS with different pH was determined by using Equilibrium Method. Method: 5 mL of each medium was removed into test tubes with plug and about 30 mg of crude drugs comprising A-nor-5α androstane compounds were added into the tubes respectively. The tubes were subjected to a thermostatic oscillator (37° C.) and vibrated at 100 rpm. After 72 hours, the sample was taken and subjected to HPLC analysis.
# [6] = Beagle dogs, 1.0 mg/kg by gastric gavage
# [7] = From the text: It mainly relies on passive diffusion mechanism for transport, uptake and absorb in the body and the uptake amounts are dependent on the time and dose. A-nor-5α-androstane compound can be administered by oral pathway. […] Therefore, an oral formulation, such as ordinary oral tablet, oral capsule and other sustained-release preparation, is designed according to the present invention.
# [8] = rat duodenum, circulating fluid pH 5.5
# [9] = rat ileum, circulating fluid pH 6.8
# [10] = rat jejunum, circulating fluid pH 6.8
# [11] = rat jejunum, concentration 25.0 μg/mL
# [12] = rat jejunum, concentration 50.0 μg/mL
# [13] = rat jejunum, concentration 100.0 μg/mL
smiles,measurement,setting,value
"C#C[C@@]1(O)C[C@@H]2CC[C@@H]3[C@H](CC[C@@]4(C)[C@H]3CC[C@@]4(O)C#C)[C@@]2(C)C1 [Ia, 2α, 17α-diethynyl-A-nor-5α-androstane-2β, 17β-dihydroxy compound]",Ka (absorption rate constant),[1]; [8],4.27 ± 1.53 ×10^−3 min
same,P (cumulative absorption percentage),[1]; [8],45.48 ± 9.33%
same,Q (absorption dose in 2 hours),[1]; [8],324.42 ± 65.21 μg/2 h
same,Ka (absorption rate constant),[1]; [9],7.57 ± 2.56 ×10^−3 min
same,P (cumulative absorption percentage),[1]; [9],65.23 ± 11.80%
same,Q (absorption dose in 2 hours),[1]; [9],1603.03 ± 289.37 μg/2 h
same,Ka (absorption rate constant),[1]; [10],9.53 ± 4.22 ×10^−3 min
same,P (cumulative absorption percentage),[1]; [10],71.68 ± 13.48%
same,Q (absorption dose in 2 hours),[1]; [10],1809.26 ± 369.52 μg/2 h
same,Ka (absorption rate constant),[1]; [11],18.87 ± 2.94 ×10^−3 min
same,P (cumulative absorption percentage),[1]; [11],90.27 ± 3.28%
same,Q (absorption dose in 2 hours),[1]; [11],1063.39 ± 75.81 μg/2 h
same,Ka (absorption rate constant),[1]; [12],9.53 ± 4.22 ×10^−3 min
same,P (cumulative absorption percentage),[1]; [12],71.68 ± 13.48%
same,Q (absorption dose in 2 hours),[1]; [12],1809.26 ± 369.52 μg/2 h
same,Ka (absorption rate constant),[1]; [13],5.50 ± 0.36 ×10^−3 min
same,P (cumulative absorption percentage),[1]; [13],53.25 ± 2.77%
same,Q (absorption dose in 2 hours),[1]; [13],2636.52 ± 137.86 μg/2 h
same,relationship between absorption and concentration,"[1]; rat jejunum, y=20.34x+649.7, r=0.9869",good linear relationship
same,absorption percentages,"[1]; rat, both jejunum and ileum",> 50%
same,relationship of uptake amounts with uptake time,"[2]; Y=0.204x+6.107, r=0.9952",linear relationship with the uptake time
same,relationship of uptake amounts with concentration,"[2]; y=40.59x−10.47, r=0.9994",linear relationship with the concentration
same,apparent permeability coefficient (Papp),[3]; all Papps under various conditions,> 1 ×10⁻⁶ cm/s
same,ER (efflux rate),[3]; concentration 0.5 mg/mL,1.94
same,Papp A-B,[3]; concentration 0.5 mg/mL,2.59 ± 0.17 ×10^−6 cm/s
same,Papp B-A,[3]; concentration 0.5 mg/mL,5.02 ± 0.50 ×10^−6 cm/s
same,ER (efflux rate),[3]; concentration 0.75 mg/mL,1.62
same,Papp A-B,[3]; concentration 0.75 mg/mL,4.00 ± 0.15 ×10^−6 cm/s
same,Papp B-A,[3]; concentration 0.75 mg/mL,6.46 ± 0.71 ×10^−6 cm/s
same,ER (efflux rate),[3]; concentration 1.0 mg/mL,1.82
same,Papp A-B,[3]; concentration 1.0 mg/mL,4.98 ± 0.16 ×10^−6 cm/s
same,Papp B-A,[3]; concentration 1.0 mg/mL,9.07 ± 0.35 ×10^−6 cm/s
same,LogP,[4]; buffer pH 2.0,∞
same,LogP,[4]; buffer pH 4.5,4.19
same,LogP,[4]; buffer pH 5.0,3.80
same,LogP,[4]; buffer pH 6.0,2.52
same,LogP,[4]; buffer pH 6.8,0.98
same,LogP,[4]; buffer pH 7.4,0.11
same,equilibrium solubility,[5]; pH 1.0 hydrochloric acid,7.85 ± 0.57 µg/mL
same,equilibrium solubility,[5]; pH 5.0 PBS,14.73 ± 0.80 µg/mL
same,equilibrium solubility,[5]; pH 5.5 PBS,45.73 ± 0.23 µg/mL
same,equilibrium solubility,[5]; pH 5.8 PBS,70.52 ± 1.28 µg/mL
same,equilibrium solubility,[5]; pH 6.0 PBS,144.54 ± 0.77 µg/mL
same,equilibrium solubility,[5]; pH 6.8 PBS,1388.16 ± 90.95 µg/mL
same,equilibrium solubility,[5]; pH 7.4 PBS,4507.97 ± 487.04 µg/mL
same,absolute bioavailability,[6]; based on AUC0-t of crude drug,56.8%
same,absolute bioavailability,[6]; based on AUC0-t of total main metabolites in vivo,93.0%
same,water dissolution rate,[7],6.5 µg/mL
